Experimental data as given in US10829452B2, “Histone methyltransferase inhibitors” (GLOBAL BLOOD THERAPEUTICS, INC., priority 2016, dated 2020).
Counter-ions that a name gives are not always drawn.

Target: T1, G9a (Homo sapiens, UniProt Q96KQ7)
T1 sequence (Q96KQ7 1-1210): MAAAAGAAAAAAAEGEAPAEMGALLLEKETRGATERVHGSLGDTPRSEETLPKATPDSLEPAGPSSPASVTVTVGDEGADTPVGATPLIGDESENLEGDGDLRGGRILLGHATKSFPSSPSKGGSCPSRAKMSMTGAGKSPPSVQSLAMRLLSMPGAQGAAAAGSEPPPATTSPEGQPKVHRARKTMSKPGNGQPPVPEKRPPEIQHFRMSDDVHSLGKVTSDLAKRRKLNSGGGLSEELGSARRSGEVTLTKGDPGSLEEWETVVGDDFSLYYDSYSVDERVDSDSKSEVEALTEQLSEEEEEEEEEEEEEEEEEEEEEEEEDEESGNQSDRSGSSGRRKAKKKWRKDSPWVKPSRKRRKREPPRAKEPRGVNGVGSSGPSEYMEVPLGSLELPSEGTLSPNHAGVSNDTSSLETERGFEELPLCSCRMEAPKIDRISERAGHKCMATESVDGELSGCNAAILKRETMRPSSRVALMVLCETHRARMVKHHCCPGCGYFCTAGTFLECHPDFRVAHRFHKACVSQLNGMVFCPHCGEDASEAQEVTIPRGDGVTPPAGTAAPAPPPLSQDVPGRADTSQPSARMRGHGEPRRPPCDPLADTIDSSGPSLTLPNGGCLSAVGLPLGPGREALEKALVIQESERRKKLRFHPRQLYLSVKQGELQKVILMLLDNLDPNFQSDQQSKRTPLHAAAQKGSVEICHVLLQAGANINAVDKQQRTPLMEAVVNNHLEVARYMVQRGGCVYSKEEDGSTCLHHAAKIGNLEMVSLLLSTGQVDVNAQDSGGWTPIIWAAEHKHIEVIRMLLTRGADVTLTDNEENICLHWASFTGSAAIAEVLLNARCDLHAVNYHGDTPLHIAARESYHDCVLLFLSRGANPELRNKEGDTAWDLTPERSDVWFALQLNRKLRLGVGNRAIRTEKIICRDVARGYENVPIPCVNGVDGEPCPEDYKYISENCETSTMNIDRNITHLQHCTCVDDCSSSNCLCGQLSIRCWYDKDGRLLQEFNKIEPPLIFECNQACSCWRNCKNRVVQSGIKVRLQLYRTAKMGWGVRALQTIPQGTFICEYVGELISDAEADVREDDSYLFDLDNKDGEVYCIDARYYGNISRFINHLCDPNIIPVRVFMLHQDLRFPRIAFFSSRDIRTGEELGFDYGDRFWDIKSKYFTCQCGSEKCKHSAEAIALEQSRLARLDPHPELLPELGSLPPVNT
Experiment: G9a AlphaLISA enzymatic activity assay
Type: biochemical
Details: 0.15 nM G9a, 15 uM S-adenosyl-methionine, 100 nM biotinylated histone 3 peptide (1-21), 1 hour at room temperature; read-out: G9a in (uM) (IC50, concentration that produced 50% inhibition)
Procedure, shortened: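 Human G9a (0.15 nM) methylated 100 nM biotinylated histone H3(1-21) peptide with 15 uM SAM in Tris-HCl pH9 buffer with NaCl, Tween-20 and DTT, 1 h at room temperature. H3K9me2 was detected by AlphaLISA acceptor/streptavidin donor beads (20 ug/mL each); IC50 from percent inhibition across compound dilutions.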

SMILES	IC50 [µM]
COc1cc2c3c(c(NCCSC)nc2cc1OCCCN1CCCC1)CCC3 [Example 120, 8-methoxy-N-[2-(methylsulfanyl)ethyl]-7-[3-(pyrrolidin-1-yl)propoxy]-1H,2H,3H-cyclopenta[c]quinolin-4-amine formate]	0.075
COc1cc2c3c(c(N[C@H]4CC[C@H](O)CC4)nc2cc1OCCCN1CCCC1)CCC3 [Example 123, (1R,4R)-4-({8-methoxy-7-[3-(pyrrolidin-1-yl)propoxy]-1H,2H,3H-cyclopenta[c]quinolin-4-yl}amino)cyclohexan-1-ol formate]	0.17
COc1cc2c3c(c(NC4CCC(O)C4)nc2cc1OCCCN1CCCC1)CCC3 (centres unmarked) [Example 126, 3-({8-methoxy-7-[3-(pyrrolidin-1-yl)propoxy]-1H,2H,3H-cyclopenta[c]quinolin-4-yl}amino)cyclopentan-1-ol formate]	0.15

Further lines, results first:

IC50 [µM]	SMILES
0.043	COc1cc2c3c(c(N[C@H]4CCCC[C@@H]4O)nc2cc1OCCCN1CCCC1)CCC3 [Example 122, (1S,2S)-2-({8-methoxy-7-[3-(pyrrolidin-1-yl)propoxy]-1H,2H,3H-cyclopenta[c]quinolin-4-yl}amino)cyclohexan-1-ol formate]
4.7	COc1cc2c3c(c(N[C@H]4CCC[C@@H]4O)nc2cc1OCCCN1CCCC1)CCC3 [Example 124, (1S,25)-2-({8-methoxy-7-[3-(pyrrolidin-1-yl)propoxy]-1H,2H,3H-cyclopenta[c]quinolin-4-yl}amino)cyclopentan-1-ol formate]
